Measurements: US10526579B2, “Podocyte cultures and uses thereof” (RUSH UNIVERSITY MEDICAL CENTER, priority 2013, dated 2020)

Columns and labels:
cultured podocytes [1] = assay: High-content focal adhesion assay in cultured differentiated podocytes (anti-paxillin stain); type: cell-based, murine; settings: 48 h at 37° C., 96-well plates
Method: FIG. 6. […] Differentiated podocytes were cultured in 96-well multiwell plates. Cells were either kept in normal cell culture media or were treated with increasing concentration of PAN for 48 h at 37° C. Subsequently, the cells were fixed with paraformaldehyde and the focal adhesions were stained using an anti-paxillin antibody. Cells were imaged using PerkinElmer OPERA High-content screening microscope and the images were analyzed using PerkinElmer Columbus analysis system to […] in each well of the multiwell plate. FIGS. 6A and 6B show representative images of untreated (A) and PAN-treated (B) podocytes. […] These two parameters also gave a reproducible IC50 value for PAN as an in vitro podocyte damaging agent. Each data point represents average count per cell (from approximately 500-2000 cells/well) from a single well.
FIG. 7. Focal adhesion protection with Mizouribine. […] Cells were imaged using PerkinElmer OPERA High-content screening microscope and the images were analyzed using PerkinElmer Columbus analysis system to count F-actin fibers per cell in each well of the multiwell plate. […] The method allowed quantitative assessment of podocyte protection in a dose-response fashion using these parameters based on the podocyte focal adhesions when treated with the compounds PAN and mizouribine. […]

cultured podocytes [2] = assay: High-content F-actin stress fiber assay in cultured differentiated podocytes (phalloidin stain); type: cell-based, murine; settings: 48 h at 37° C., 96-well plates
Method: A dose-response curve showing the effects of increasing concentration of podocyte injuring drug puromycin aminonucleoside (PAN) on various cellular parameters, including the intensity and the number of actin fibers, in cultured podocytes. Differentiated podocytes were cultured in 96-well multiwell plates. Cells were either kept in normal cell culture media or were treated with increasing concentration of PAN for 48 h at 37° C. Subsequently, the cells were fixed with paraformaldehyde and the filamentous actin (F-actin) fibers stained using Alexa Fluor 594-labeled phalloidin. Cells were imaged using PerkinElmer OPERA High-content screening microscope and the images were analyzed using PerkinElmer Columbus analysis system to count F-actin fibers per cell in each well of the multiwell plate. FIGS. 4A and 4B show representative images of untreated (A) and PAN-treated (B) podocytes. […] These two parameters also gave a reproducible IC50 value for PAN as an in vitro podocyte damaging agent. Each data point represents average F-actin fiber count per cell (from approximately 500-2000 cells/well) from a single well.
FIG. 5. […] Cells were imaged using PerkinElmer OPERA High-content screening microscope and the images were analyzed using PerkinElmer Columbus analysis system to count F-actin fibers per cell in each well of the multiwell plate. […]

[3] = co-treatment with PAN and increasing concentration of mizouribine
[4] = increasing concentration of PAN

| SMILES | protection of podocyte focal adhesions from PAN damage (cultured podocytes [1]; [3]) | protection of podocyte actin fibers from PAN damage (cultured podocytes [2]; [3]) | effect on number and intensity of focal adhesions (relative spot to background intensity; FA - number of objects) (cultured podocytes [1]; [4]) | effect on intensity and number of actin fibers (relative spot to background intensity; whole cell fibers - number of objects) (cultured podocytes [2]; [4]) |
| --- | --- | --- | --- | --- |
| NC(=O)c1ncn([C@@H]2O[C@H](CO)[C@@H](O)[C@H]2O)c1O [Mizouribine, mizouribine] | protects the focal adhesions from PAN damage | dose-dependently prevents podocyte damage |  |  |
| CN(C)c1ncnc2c1ncn2[C@@H]1O[C@H](CO)[C@@H](N)[C@H]1O [PAN, puromycin aminonucleoside] |  |  | leads to reduced focal adhesions | podocyte damage in a dose-response fashion |
